# Measured values reported in article PMC11674305, “Inhibition of Neural Crest Cell Migration by Strobilurin Fungicides and Other Mitochondrial Toxicants” (Cells, 2024).
# Tests used:
# neural crest cells (NCC) = experiment: Transwell migration assay (FBS chemoattractant, 6 h); assay type: cell-based, human; conditions: glucose or galactose medium
# Description: Cells were seeded at a density of 50,000 cells/well (150,000 cells/cm^2) into the upper chamber (insert) of the 96-well transwell plates (pore size 8 μm, polycarbonate membrane, Corning, Glendale, AZ, USA). The cells were stimulated to migrate through the membrane by medium supplemented with 5% of the chemoattractant fetal bovine serum (FBS) (PAA Laboratories, Pasching, Austria) in the lower chamber (reservoir). For testing of migration inhibition upon compound treatment, compounds were used at a concentration of BMC10 (V) of prior cMINC testing. Three technical replicates per condition were used. As a control for “unstimulated” migration, medium without any chemoattractant was tested. As an endpoint specific control for “inhibited” migration, CytoD with a concentration of 200 nM was used. After 6 h incubation time, the medium was aspirated, and reservoirs were washed with DPBS. Afterwards, reservoirs were filled with EDTA dissociation solution (DPBS supplemented with 0.1% 0.5 M EDTA UltraPure pH 8.0 (Thermo Fisher Scientific, Waltham, MA, USA), and 0.18% NaCl) containing 0.25 μL/mL calcein-AM and incubated for 30 min at 37 °C. The plates were then centrifuged at 300× g for 5 min (1200 rpm, Heraeus Multifuge 1 S-R, ThermoScientific) to remove migrated cells from the membrane. The tray with 96 wells of permeable inserts was removed, and the receiver plate was measured in the spectrophotometer (TECAN, Männedorf, Switzerland) with an emission wavelength of 520 nm. After subtraction of the blank values, the number of migrated cells was normalized to that of cells stimulated with FBS.
# To perform the experiments under mitochondria-dependent conditions, the cells were handled exactly in the same way, but the medium was adapted. The N2-S medium was adjusted, so that no glucose was present but galactose. The medium consisted of SILAC^TM Advanced DMEM/-F12 FLEX (Gibco/Fisher Scientific, Hampton, NH, USA), 15 μg/mL insulin, 400 μM GlutaMAX, 0.7 mM L-Arginine, 0.5 mM L-Lysine, 21.5 µM Phenol Red, 20 nM progesterone, 100 μM putrescine and 30 nM selenium, 92.5 μg/mL apotransferrin, 4.7 mg/mL galactose (18 mM). The cytokines 20 ng/mL EGF and 20 ng/mL FGF2 were always freshly added to each run.
# [1] = Estimate of maximal tolerable/acceptable exposure; set-up: species or system human; conditions: per day; LOEL with safety factor of 100, same as ADI of FAO/WHO 2012 report
# Description: An estimate of the maximal external exposure was obtained as the next step of the study. We used two different approaches, based on (i) setting the acceptable daily intake as the upper limit and (ii) referring to the no-observed-effect level (NOEL) in an animal study (detailed in Figure 7A). We concluded from both approaches that a plausible upper daily tolerated threshold is 0.09 mg/kg. This value was used in a physiologically based kinetic (PBK) model to obtain concentration time data for different tissues in mothers and their fetus. Assuming a repeated daily exposure, the maximal maternal plasma concentrations were predicted to be in the 200–300 nM range. The maximal steady-state fetal brain concentrations were predicted to be in the 100 nM range (5th and 95th percentiles for exposure in the population of 100 subjects were 60–190 nM) (Figure 7B). […] Next, we used some advanced assays to obtain a better understanding of the potency range of picoxystrobin when used in different experimental setups. […]
# Figure 7 Comparison of internal exposure estimates and primary effect potency. […] Data are expressed as means ± SEM from three independent biological experiments. ^# LOEL of animal study is based on a 90-day dog study (REF: https://www.fao.org/3/i3111e/i3111e.pdf (accessed on 15 June 2024)). *^,§ There is also an old (no longer valid) value by EFSA of 0.043 mg/kg/day from the year 2004 [71]. […]
# [2] = cited from earlier work
compound,measurement,setting,value
"CO/C=C(/C(=O)OC)c1ccccc1COc1cccc(C(F)(F)F)n1 [Picoxystrobin, picoxystrobin]",concentration at which transwell migration was inhibited,neural crest cells (NCC),≥ 5 µM
same,upper daily tolerated threshold / estimate of max. exposure [tolerable/acceptable],[1],0.09 mg/kg
same,Henry's law constant,"[2]; at 25 °C, VIVD model input",6 × 10^−4 Pa*m^3*mol⁻^1
same,charge characterization,[2]; model input,neutral
